Laboratory results taken from publication PMC8272044, “5-Phenoxy Primaquine Analogs and the Tetraoxane Hybrid as Antimalarial Agents” (Molecules, 2021).
Like-named read-outs stand apart in the source and are kept apart here.

Key:
P. falciparum 3D7 = test: In vitro blood antimalarial activity, malaria SYBR green I-based fluorescence (MSF) method; assay type: cell-based; conditions: Plasmodium falciparum; P. falciparum 3D7, blood stage, 48 h, mean ± SD of three biological repeats
Description: P. falciparum strain 3D7 (wild-type drug sensitive strain) was used in this study. This parasite was maintained continuously in vitro in human O+ erythrocytes (4% hematocrit) at 37 °C under 3% CO2 and 90% N2 in RPMI 1640 culture media (Life Technologies Limited, Paisley, UK) containing 2 mM L-Glutamine, 25 mM HEPES (Sigma), pH 7.4, 2g/L NaHCO3, 40 mg/L gentamicin, 0.37 mM hypoxanthine, and supplemented with 5 g/L Albumax I (Life Technologies, Grand Island, NY, USA). Every 3 to 4 days, the parasite culture was synchronized with 5% sorbitol and transferred into complete medium with uninfected erythrocytes. In vitro antimalarial activity was determined by using the malaria SYBR green I-based fluorescence (MSF) method. Briefly, 0.09 mL of cultured 1% ring-stage synchronized parasites and 2% hematocrit were transferred to individual wells of a standard 96-well microtiter plate and in vitro culture continued for 48 h, with 0.01 mL of compound at different concentration in each well. The compounds were first dissolved in DMSO and diluted with RPMI medium to 1% DMSO. The final concentration of DMSO in each well was 0.1%, which caused no effect on the parasite viability. Following 48 h, SYBR Green I solution (0.02 µL of 10,000X SYBR Green I/100 µL of buffer solution consisted of 20 mM Tris 20, pH 7.5, 5 mM EDTA, 0.008% w/v saponin and 0.08% v/v Triton X-100) was then added to each well, and fluorescence signals were measured by spectrofluorometer at ex485/em 535 nm. […] The result of each compound was normalized with control media for the overall background subtraction as 0% and untreated parasite with 0.1% DMSO as 100% control.

[1] = Cytotoxicity by sulforhodamine B (SRB) colorimetric assay; assay type: cell-based, African green monkey; conditions: African green monkey, Vero cells (kidney fibroblasts); Vero cells, 72 h, SRB, mean ± SD of three repeats
Source text: (§1) A cytotoxicity test of selected analogs against African green monkey kidney fibroblast (Vero cells) was obtained from Bioassay Laboratory, BIOTEC, NSTDA, Thailand. They were maintained continuously in MEM/EBSS medium (Hyclone Laboratories Inc., South Logan, UT, USA), supplemented with 10% heated fetal bovine serum (GE Healthcare, PAA Laboratories GmbH, Pasching, Austria), 2.2 g/L Sodium bicarbonate (Emsure, Merck kGaA, Darmstadt, Germany), and 1% sodium pyruvate (Sigma). […] Then, the cells were fixed with 100 µL of 10% trichloroacetic acid (Sigma) at 4 °C for 45 min, washed, and dried at room temperature overnight. […] Finally, 200 µL of 10× Tris-base was added to each well to dissolve protein-bound dye. The OD was determined at a wavelength of 510 nm. The control media was used for overall background subtraction as 0% and untreated cells as 100% control without any cytotoxic effect. The IC50 value of each compound was determined from the dose–response curve.

[2] = tested on: African green monkey kidney fibroblast (Vero cells); test: as above; assay type: cell-based; conditions: Vero CC50 / P. falciparum 3D7 IC50
Source text: as §1

hematin polymerization [3] = test: Inhibition of hematin polymerization (heme polymerization assay); assay type: biochemical;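 as to %Inh1: test concentrations in µM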;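 as to %Inh2: test concentrations in µM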;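 as to %Inh3: test concentrations in µM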
Description: The ability of the 5-phenoxy primaquine analogs to inhibit hematin polymerization was investigated using a protocol modified from the one described previously. […] After it was left standing for 15 min, Tween 20 (0.5 μM; Sigma) was added. […] The assay was performed in triplicate, and results were expressed as the percentage of inhibition relative to hemozoin formation in a negative control. The IC50 values were obtained from the sigmoidal dose–response curves using nonlinear regression curve fitting analyses with GraphPad Prism version 3.00 software. Each IC50 value is the result of at least three separate experiments.

hematin polymerization [4] = tested on: hematin polymerization; design: method as in PMID 10049273; conditions: literature value; read-out: IC50, hematin polymerization inhibition; cited from earlier work
[5] = pH 5.0, mean ± SD of three independent repeats, read-out: IC50, inhibition of hemozoin-initiated hematin polymerization
[6] = primary data, repeat 1, read-out: IC50, heme polymerization inhibition, repeat 1
[7] = primary data, repeat 2, read-out: IC50, heme polymerization inhibition, repeat 2
[8] = primary data, repeat 3, read-out: IC50, heme polymerization inhibition, repeat 3

| SMILES | IC50 (P. falciparum 3D7) [µM] | %Inh1 (hematin polymerization [3]; conc 2, repeat 1) [%] | %Inh2 (hematin polymerization [3]; conc 2, repeat 2) [%] | %Inh3 (hematin polymerization [3]; conc 2, repeat 3) [%] | %Inh1 (hematin polymerization [3]; conc 10, repeat 1) [%] | %Inh2 (hematin polymerization [3]; conc 10, repeat 2) [%] | %Inh3 (hematin polymerization [3]; conc 10, repeat 3) [%] | %Inh1 (hematin polymerization [3]; conc 50, repeat 1) [%] | %Inh2 (hematin polymerization [3]; conc 50, repeat 2) [%] | %Inh3 (hematin polymerization [3]; conc 50, repeat 3) [%] | %Inh1 (hematin polymerization [3]; conc 100, repeat 1) [%] | %Inh2 (hematin polymerization [3]; conc 100, repeat 2) [%] | %Inh3 (hematin polymerization [3]; conc 100, repeat 3) [%] | %Inh1 (hematin polymerization [3]; conc 200, repeat 1) [%] | %Inh2 (hematin polymerization [3]; conc 200, repeat 2) [%] | %Inh3 (hematin polymerization [3]; conc 200, repeat 3) [%] | %Inh1 (hematin polymerization [3]; conc 400, repeat 1) [%] | %Inh2 (hematin polymerization [3]; conc 400, repeat 2) [%] | %Inh3 (hematin polymerization [3]; conc 400, repeat 3) [%] | IC50 (hematin polymerization [3]; [5]) [µM] | also measured |
| --- | --- | --- | --- | --- | --- | --- | --- | --- | --- | --- | --- | --- | --- | --- | --- | --- | --- | --- | --- | --- | --- |
| COc1cc(NC(C)CCCN)c2ncccc2c1Oc1ccc(C#N)cc1 (stereo not shown) [7e, 4-((8-((5-Aminopentan-2-yl)amino)-6-methoxyquinolin-5-yl)oxy)benzonitrile] | 4.62 ± 0.56 | 8.32 | 3.87 | 7.94 | 3.78 | 12.84 | 9.43 | 19.32 | 16.35 | 21.70 | 30.12 | 30.64 | 17.31 | 52.26 | 55.89 | 45.17 | 78.42 | 85.27 | 69.64 | 286 ± 11.9 | CC50 at 72 h [1]: > 100 µM; SI, selectivity index = CC50 on Vero cells / IC50 in the blood stage [2]: >21.65; IC50 (hematin polymerization [3]; [6]): 291 µM; IC50 (hematin polymerization [3]; [7]): 269 µM; IC50 (hematin polymerization [3]; [8]): 297 µM |
| COc1cc(NC(C)CCCN)c2ncccc2c1Oc1ccc(F)cc1 (stereo not shown) [7f, N^4-(5-(4-Fluorophenoxy)-6-methoxyquinolin-8-yl) pentane-1,4-diamine] | 4.97 ± 0.4 | 6.02 | 1.81 | 11.52 | 14.36 | 7.54 | 9.67 | 18.94 | 24.82 | 18.18 | 36.82 | 32.41 | 35.89 | 67.61 | 72.28 | 73.29 | 89.47 | 91.81 | 104.26 | 167 ± 8.6 | CC50 at 72 h [1]: 47.5 ± 3.23 µM; SI, selectivity index = CC50 on Vero cells / IC50 in the blood stage [2]: 9.55; IC50 (hematin polymerization [3]; [6]): 155 µM; IC50 (hematin polymerization [3]; [7]): 171 µM; IC50 (hematin polymerization [3]; [8]): 175 µM |
| COc1cc(NC(C)CCCN)c2ncccc2c1Oc1ccc(C(N)=O)cc1 (stereo not shown) [7h, 4-((8-((5-Aminopentan-2-yl)amino)-6-methoxyquinolin-5-yl)oxy)benzamide] | 13.5 ± 1.57 | 6.92 | 2.87 | 14.16 | 8.33 | 17.48 | 18.60 | 22.32 | 30.21 | 30.28 | 39.91 | 44.86 | 40.80 | 66.71 | 77.84 | 84.25 | 87.23 | 92.60 | 103.26 | 154 ± 6.4 | CC50 at 72 h [1]: > 100 µM; SI, selectivity index = CC50 on Vero cells / IC50 in the blood stage [2]: >7.41; IC50 (hematin polymerization [3]; [6]): 154 µM; IC50 (hematin polymerization [3]; [7]): 162 µM; IC50 (hematin polymerization [3]; [8]): 146 µM |
| COc1cc(NC(C)CCCN)c2ncccc2c1 (stereo not shown) [PQ, primaquine bisphosphate, reference compound] | 11.3 ± 0.79 | -2.08 | 16.17 | 4.69 | -9.33 | 8.67 | 3.70 | 12.67 | -7.00 | 5.24 | 19.42 | 22.96 | 19.59 | 46.18 | 36.04 | 39.63 | 73.12 | 80.96 | 77.01 | 320 ± 12 | IC50 (hematin polymerization [3]; [6]): 313 µM; IC50 (hematin polymerization [3]; [7]): 310 µM; IC50 (hematin polymerization [3]; [8]): 337 µM; IC50 (hematin polymerization [4]): > 2500 µM |
| COc1cc(NC(C)CCCNCCCCOc2ccc(C3CCC4(CC3)OOC3(OO4)C4CC5CC(C4)CC3C5)cc2)c2ncccc2c1Oc1ccccc1 (stereo not shown) [compound 12, N^1-(4-(4-((1r,3r,5r,7r)-Dispiro[adamantane-2,3′-[1,2,4,5]tetraoxane-6′,1″-cyclohexan]-4″-yl)phenoxy)butyl)-N^4-(6-methoxy-5-phenoxyquinolin-8-yl)pentane-1,4-diamine] | 0.38 ± 0.11 | 12.59 | 16.51 | 8.88 | 19.10 | 21.09 | 14.14 | 48.21 | 49.80 | 51.14 | 82.20 | 73.34 | 64.09 | 90.25 | 95.79 | 87.78 | 106.35 | 95.69 | 97.20 | 66.9 ± 3.5 | CC50 at 72 h [1]: 17.3 ± 0.36 µM; SI, selectivity index = CC50 on Vero cells / IC50 in the blood stage [2]: 45.61; IC50 (hematin polymerization [3]; [6]): 64.5 µM; IC50 (hematin polymerization [3]; [7]): 64.3 µM; IC50 (hematin polymerization [3]; [8]): 71.8 µM |
